# Experimental data reported in patent US6784201B2, “Benzothiepines having activity as inhibitors of ileal bile acid transport and taurocholate uptake” (G.D. Searle & Company, priority 1994, dated 2004).
# Key:
# [1] = test system: Rabbit Ileal brush border membranes; assay: [3H]taurocholate uptake in rabbit brush border membrane vesicles (BBMV); type: biochemical; details: read-out: TC-uptake (BBMV) IC(50)
# Experimental: [^3H]Taurocholate Uptake in Rabbit Brush Border Membrane Vesicles (BBMV)
# Rabbit Ileal brush border membranes were prepared from frozen iheal mucosa by the calcium precipitation method describe by Malathi et al. (Reference: (1979) Biochimica Biophysica Acta, 554, 259). The method for measuring taurocholate was essentially as described by Kramer et al. (Reference: (1992) Biochimica Biophysica Acta, 1111, 93) except the assay volume was 200 μl instead of 100 μl.
# Serum Cholesterol [2] = assay: Determination of serum cholesterol, rat Alzet minipump model; type: in vivo; details: 20 MPL/DAY, mean (SEM)
# Experimental: (§1) Determination of Serum Cholesterol (SER.CHOL, HDL-CHOL, TGI and VLDL+LDL)
# (§2) Total serum cholesterol (SER.CHOL) was measured enzymatically using a commercial kit from Wako Fine Chemicals (Richmond, Va.); Cholesterol C11, Catalog No. 276-64909. HDL cholesterol (HDL-CHOL) was assayed using this same kit after precipitation of VLDL and LDL with Sigma Chemical Co. HDL Cholesterol reagent, Catalog No. 352-3 (dextran sulfate method). Total serum triglycerides (blanked) (TGI) were assayed enzymatically with Sigma Chemical Co. GPO-Trinder, Catalog No. 337-B. VLDL and LDL (VLDL+LDL) cholesterol concentrations were calculated as the difference between total and HDL cholesterol.
# Fecal Bile Acid [3] = assay: Fecal bile acid concentration (FBA), cholesterol-fed hamsters; type: in vivo, hamster; details: 0.2% Cpd. No. 25, mean (SEM)
# Experimental: (§3) Measurement of Fecal Bile Acid Concentration (FBA)
# (§4) Total fecal output from individually housed hamsters was collected for 24 or 48 hours, dried under a stream of nitrogen, pulverized and weighed. Approximately 0.1 gram was weighed out and extracted into an organic solvent (butanol/water). Following separation and drying, the residue was dissolved in methanol and the amount of bile acid present was measured enzymatically using the 3α-hydroxysteroid steroid dehydrogenase reaction with bile acids to reduce NAD. (Reference: Mashige, F., et al. (1981) Clin. Chem. 27, 1352).
# [4] = test system: Rat Ileal Uptake of [14C]-Taurocholate; assay: In vivo assay of rat ileal uptake of [14C]-taurocholate into bile (ileal loop)
# Experimental: In Vivo Assay of Compounds that Inhibit Rat Ileal Uptake of [^14C]-Taurocholate into Bile
# (See “Metabolism of 3α,7β-dihydroxy-7α-methyl-5β-cholanoic acid and 3α,7β-dihydroxy-7α-methyl-5β-cholanoic acid in hamsters” in Biochimica et Biophysica Acta 833 (1985) 196-202 by Une et al.)
# Male wistar rats (200-300 g) are anesthetized with inactin @100 mg/kg. Bile ducts are cannulated with a 10″ length of PE10 tubing. The small intestine is exposed and laid out on a gauze pad. A canulae (⅛″ luer lock, tapered female adapter) is inserted at 12 cm from the junction of the small intestine and the cecum. A slit is cut at 4 cm from this same junction (utilizing a 8 cm length of ileum). 20 ml of warm Dulbecco's phosphate buffered saline, pH 6.5 (PBS) is used to flush out the intestine segment. The distal opening is cannulated with a 20 cm length of silicone tubing (0.02″ I.D.×0.037″ O.D.). The proximal cannulae is hooked up to a peristaltic pump and the intestine is washed for 20 min with warm PBS at 0.25 ml/min. Temperature of the gut segment is monitored continuously. At the start of the experiment, 2.0 ml of control sample ([^14C]-taurocholate @ 0.05 mi/ml with 5 mM cold taurocholate) is loaded into the gut segment with a 3 ml syringe and bile sample collection is begun. Control sample is infused at a rate of 0.25 ml/min for 21 min. Bile samples fractions are collected every 3 minute for the first 27 minutes of the procedure. After the 21 min of sample infusion, the ileal loop is washed out with 20 ml of warm PBS (using a 30 ml syringe), and then the loop is washed out for 21 min with warm PBS at 0.25 ml/min. A second perfusion is initiated as described above but this with test compound being administered as well (21 min administration followed by 21 min of wash out) and bile sampled every 3 min for the first 27 min. If necessary, a third perfusion is performed as above that typically contains the control sample.
# Serum Cholesterol [5] = assay: Determination of serum cholesterol (SER.CHOL, HDL-CHOL, TGI, VLDL+LDL), cholesterol-fed hamsters; type: in vivo, hamster; details: 0.2% Cpd. No. 25, mean (SEM)
# Experimental: as §1, §2
# [6] = test system: Hepatic HMG CoA-Reductase; assay: Hepatic HMG CoA-reductase activity, cholesterol-fed hamsters; type: in vivo, hamster; details: 0.2% Cpd. No. 25, mean (SEM)
# Experimental: Measurement of Hepatic HMG CoA-Reductase Activity (HMG COA)
# Hepatic microsomes were prepared by homogenizing liver samples in a phosphate/sucrose buffer, followed by centrifugal separation. The final pelleted material was resuspended in buffer and an aliquot was assayed for HMG CoA reductase activity by incubating for 60 minutes at 37° C. in the presence of ^14C-HMG-CoA (Dupont-NEN). The reaction was stopped by adding 6N HCl followed by centrifugation. An aliquot of the supernatant was separated, by thin-layer chromatography, and the spot corresponding to the enzyme product was scraped off the plate, extracted and radioactivity was determined by scintillation counting. (Reference: Akerlund, J. and Bjorkhem, I. (1990) J. Lipid Res. 31, 2159).
# Fecal Bile Acid [7] = assay: Fecal bile acid concentration (FBA), rat Alzet minipump model; type: in vivo; details: 20 MPL/DAY, mean (SEM)
# Experimental: as §3, §4
# [8] = Efficacy in cholesterol-fed hamsters: body, liver and fecal weight; type: in vivo, hamster; details: 0.2% Cpd. No. 25, mean (SEM)
# Hepatic Cholesterol = assay: Hepatic cholesterol concentration, rat Alzet minipump model; type: in vivo; details: 20 MPL/DAY, mean (SEM)
# Experimental: Measurement of Hepatic Cholesterol Concentration (Hepatic CHOL)
# Liver tissue was weighed and homogenized in chloroform:methanol (2:1). After homogenization and centrifugation the supernatant was separated and dried under nitrogen. The residue was dissolved in isopropanol and the cholesterol content was measured enzymatically, using a combination of cholesterol oxidase and peroxidase, as described by Allain, C. A., et al. (1974) Clin. Chem. 20, 470.
smiles,measurement,setting,value
"CCCC[C@]1(CC)CS(=O)(=O)c2cc(OC)ccc2[C@@H](c2ccccc2)[C@H]1O [Example 25, (3α,4β,5β) 3-Butyl-3-ethyl-4-hydroxy-8-methoxy-5-phenyl-2,3,4,5-tetrahydrobenzothiepine-1,1-dioxide]",IC50,[1],0.8 µM
same,SER.CHOL (mg %),Serum Cholesterol [2],84 (3) mg %
same,FBA (mM/24 H/100 g),Fecal Bile Acid [3],11.9 (0.5) mM/24 H/100 g
same,activity at 100 µM,"[4]; Rattus norvegicus, read-out: % of Control Transport of TC in Rat Ileum @ 0.1 mM",26%
same,EC50,"[4]; rat ileal loop, read-out: TC-uptake Ileal Loop EC(50)",20 µM
same,HDL-CHOL (mg %),Serum Cholesterol [5],"76 (1) *A, B mg %"
same,SER.CHOL (mg %),Serum Cholesterol [5],126 (2) mg %
same,TGI (mg %),Serum Cholesterol [5],175 (11) mg %
same,VLDL + LDL,Serum Cholesterol [5]; difference total minus HDL cholesterol,50 (3)
same,HMG COA (pm/mg/min.),[6],312.9 (37.5) pm/mg/min.
same,FBA (mM/24 H/100 g),Fecal Bile Acid [7],"39.1 (4.5) *A, B mM/24 H/100 g"
same,LIVER WEIGHT (G),[8],5.8 (0.2) G
same,WEIGHT (G) day 1,[8],117 (5) G
same,WEIGHT (G) day 14,[8],132 (4) G
same,HEPATIC CHOL (mg/g),Hepatic Cholesterol,2.0 (0.03) mg/g
